Here are results for 7 cell lines from the supplement of paper PMC10307832.

Assay in all cases: relative viability (nuclei count vs DMSO), 5 days (fraction); higher = more cells survive
Compound in the experiment “Zosuquidar + Bortezomib”: O[C@@H](COc1cccc2ncccc12)CN1CCN([C@@H]2c3ccccc3[C@@H]3[C@H](c4ccccc42)C3(F)F)CC1 [Zosuquidar] + CC(C)C[C@H](NC(=O)[C@H](Cc1ccccc1)NC(=O)c1cnccn1)B(O)O [Bortezomib] (partner 0.002 µM)
The gist of the method:
(§1)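 Five library-drug doses in √10 steps were combined with a fixed anchor-drug dose, or a single drug was given alone, by pin tool to lung cancer cell lines in 1536-well plates the day after seeding. Nuclei were stained and counted after 5 days. Relative viability is the nuclei count in treated wells over that in vehicle wells, taken as the median of duplicate plates.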

Compound in the experiment “Kobe2602 + Phenformin”: C1=CC(=CC=C1NC(=S)NNC2=C(C=C(C=C2[N+](=O)[O-])C(F)(F)F)[N+](=O)[O-])F [Kobe2602] + N=C(N)NC(=N)NCCc1ccccc1 [Phenformin] (partner 250 µM)
Put shortly: as §1

Compound in experiment [1]: COc1cc2nccc(Oc3ccc(NC(=O)C4(C(=O)Nc5ccc(F)cc5)CC4)cc3)c2cc1OC [Cabozantinib] + CC(C)C[C@H](NC(=O)[C@H](Cc1ccccc1)NC(=O)c1cnccn1)B(O)O [Bortezomib] (partner 0.002 µM)
The gist of the method: as §1

Compound in the experiment “Kobe2602 + OSI-027”: C1=CC(=CC=C1NC(=S)NNC2=C(C=C(C=C2[N+](=O)[O-])C(F)(F)F)[N+](=O)[O-])F [Kobe2602] + COc1cccc2cc(-c3nc([C@H]4CC[C@H](C(=O)O)CC4)n4ncnc(N)c34)[nH]c12 [OSI-027] (partner 0.5 µM)
The gist of the method:
as §1

Turning to NCI-H2405, the relative viability was 0.931 in the experiment with Zosuquidar + Bortezomib (first compound 0.01 µM); 0.974 in the experiment with Zosuquidar + Bortezomib (first compound 0.03162 µM); 0.861 with Zosuquidar + Bortezomib (first compound 0.1 µM); 1.02 in the experiment with Zosuquidar + Bortezomib (first compound 0.3162 µM); 0.959 with Zosuquidar + Bortezomib (first compound 1 µM); 0.418 in the experiment with Kobe2602 + Phenformin (first compound 0.2 µM). The relative viability with Kobe2602 + Phenformin (first compound 0.6325 µM) was found to be 0.431; in the experiment with Kobe2602 + Phenformin (first compound 2 µM), 0.411; with Kobe2602 + Phenformin (first compound 6.325 µM), 0.393; with Kobe2602 + Phenformin (first compound 20 µM), 0.452; in experiment [1] (first compound 0.02 µM), 0.947; in experiment [1] (first compound 0.06325 µM), 1.06. The relative viability turned out to be 0.989 in experiment [1] (first compound 0.2 µM); 0.871 in experiment [1] (first compound 0.6325 µM); 1.04 in experiment [1] (first compound 2 µM); 0.609 with Kobe2602 + OSI-027 (first compound 0.2 µM); 0.616 with Kobe2602 + OSI-027 (first compound 0.6325 µM); 0.619 with Kobe2602 + OSI-027 (first compound 2 µM). Moreover, the relative viability was determined as 0.727 with Kobe2602 + OSI-027 (first compound 6.325 µM) and 0.719 with Kobe2602 + OSI-027 (first compound 20 µM).
NCI-H3122: the relative viability in the experiment with Zosuquidar + Bortezomib (first compound 0.01 µM) turned out to be 0.942; in the experiment with Zosuquidar + Bortezomib (first compound 0.03162 µM), 0.93; in the experiment with Zosuquidar + Bortezomib (first compound 0.1 µM) it was 0.979; in the experiment with Zosuquidar + Bortezomib (first compound 0.3162 µM) it was 1.04; with Zosuquidar + Bortezomib (first compound 1 µM), 0.996; with Kobe2602 + Phenformin (first compound 0.2 µM), 0.425. For the same cell line, the relative viability with Kobe2602 + Phenformin (first compound 0.6325 µM) came out at 0.402; with Kobe2602 + Phenformin (first compound 2 µM) it was 0.378; with Kobe2602 + Phenformin (first compound 6.325 µM) it was 0.394; with Kobe2602 + Phenformin (first compound 20 µM), 0.364; in experiment [1] (first compound 0.02 µM), 1; in experiment [1] (first compound 0.06325 µM), 1.01. Further, the relative viability was determined as 0.978 in experiment [1] (first compound 0.2 µM); 0.924 in experiment [1] (first compound 0.6325 µM); 0.964 in experiment [1] (first compound 2 µM); 0.902 with Kobe2602 + OSI-027 (first compound 0.2 µM); 0.903 with Kobe2602 + OSI-027 (first compound 0.6325 µM); 0.957 with Kobe2602 + OSI-027 (first compound 2 µM). Besides, the relative viability with Kobe2602 + OSI-027 (first compound 6.325 µM) was 0.853; with Kobe2602 + OSI-027 (first compound 20 µM), 1.12.
PC-3 [JPC-3]: the relative viability with Zosuquidar + Bortezomib (first compound 0.01 µM) was found to be 0.849; in the experiment with Zosuquidar + Bortezomib (first compound 0.03162 µM), 0.879; with Zosuquidar + Bortezomib (first compound 0.1 µM) it was 0.706; in the experiment with Zosuquidar + Bortezomib (first compound 0.3162 µM), 0.765; in the experiment with Zosuquidar + Bortezomib (first compound 1 µM) it was 0.863; in the experiment with Kobe2602 + Phenformin (first compound 0.2 µM), 0.489. For the same cell line, the relative viability was found to be 0.508 in the experiment with Kobe2602 + Phenformin (first compound 0.6325 µM); 0.525 with Kobe2602 + Phenformin (first compound 2 µM); 0.464 with Kobe2602 + Phenformin (first compound 6.325 µM); 0.502 in the experiment with Kobe2602 + Phenformin (first compound 20 µM); 0.802 in experiment [1] (first compound 0.02 µM); 0.992 in experiment [1] (first compound 0.06325 µM). For the same cell line, the relative viability is 0.863 in experiment [1] (first compound 0.6325 µM); 0.867 in experiment [1] (first compound 2 µM); 0.715 with Kobe2602 + OSI-027 (first compound 0.2 µM); 0.736 in the experiment with Kobe2602 + OSI-027 (first compound 0.6325 µM); 0.74 with Kobe2602 + OSI-027 (first compound 2 µM); 0.784 with Kobe2602 + OSI-027 (first compound 6.325 µM). The relative viability with Kobe2602 + OSI-027 (first compound 20 µM) is 0.759.
On to PC-14, for which the relative viability came to 0.846 with Zosuquidar + Bortezomib (first compound 0.01 µM); 0.992 with Zosuquidar + Bortezomib (first compound 0.03162 µM); 0.782 in the experiment with Zosuquidar + Bortezomib (first compound 0.1 µM); 0.984 with Zosuquidar + Bortezomib (first compound 0.3162 µM); 0.78 in the experiment with Zosuquidar + Bortezomib (first compound 1 µM); 0.59 with Kobe2602 + Phenformin (first compound 0.2 µM). The relative viability came to 0.804 with Kobe2602 + Phenformin (first compound 0.6325 µM); 0.558 with Kobe2602 + Phenformin (first compound 2 µM); 0.699 with Kobe2602 + Phenformin (first compound 6.325 µM); 0.592 with Kobe2602 + Phenformin (first compound 20 µM); 0.952 in experiment [1] (first compound 0.02 µM); 0.89 in experiment [1] (first compound 0.06325 µM). The relative viability in experiment [1] (first compound 0.6325 µM) was determined as 0.829; in experiment [1] (first compound 2 µM), 0.8; in the experiment with Kobe2602 + OSI-027 (first compound 0.2 µM) it was 0.836; in the experiment with Kobe2602 + OSI-027 (first compound 0.6325 µM), 0.887; in the experiment with Kobe2602 + OSI-027 (first compound 2 µM), 0.87; with Kobe2602 + OSI-027 (first compound 6.325 µM), 0.792. The relative viability with Kobe2602 + OSI-027 (first compound 20 µM) was found to be 0.339.
Consider RERF-LC-KJ, for which the relative viability in the experiment with Zosuquidar + Bortezomib (first compound 0.01 µM) is 1.17; in the experiment with Zosuquidar + Bortezomib (first compound 0.03162 µM) it was 1.16; in the experiment with Zosuquidar + Bortezomib (first compound 0.1 µM), 1.17; in the experiment with Zosuquidar + Bortezomib (first compound 0.3162 µM), 1.18; in the experiment with Zosuquidar + Bortezomib (first compound 1 µM), 0.992; with Kobe2602 + Phenformin (first compound 0.2 µM), 0.437. Moreover, the relative viability amounted to 0.413 with Kobe2602 + Phenformin (first compound 0.6325 µM); 0.395 with Kobe2602 + Phenformin (first compound 2 µM); 0.413 in the experiment with Kobe2602 + Phenformin (first compound 6.325 µM); 0.377 with Kobe2602 + Phenformin (first compound 20 µM); 1.11 in experiment [1] (first compound 0.02 µM); 1.04 in experiment [1] (first compound 0.06325 µM). The relative viability is 1.26 in experiment [1] (first compound 0.2 µM); 1.05 in experiment [1] (first compound 0.6325 µM); 1.06 in experiment [1] (first compound 2 µM); 0.615 with Kobe2602 + OSI-027 (first compound 0.2 µM); 0.485 with Kobe2602 + OSI-027 (first compound 0.6325 µM); 0.555 with Kobe2602 + OSI-027 (first compound 2 µM). Besides, the relative viability with Kobe2602 + OSI-027 (first compound 6.325 µM) stood at 0.481; with Kobe2602 + OSI-027 (first compound 20 µM), 0.257.
For SK-LU-1, the relative viability with Zosuquidar + Bortezomib (first compound 0.01 µM) came out at 1.17; with Zosuquidar + Bortezomib (first compound 0.03162 µM), 1.14; in the experiment with Zosuquidar + Bortezomib (first compound 0.1 µM), 0.962; with Zosuquidar + Bortezomib (first compound 1 µM) it was 1.41; with Kobe2602 + Phenformin (first compound 0.2 µM), 0.618; in the experiment with Kobe2602 + Phenformin (first compound 0.6325 µM), 0.682. Also, the relative viability in the experiment with Kobe2602 + Phenformin (first compound 2 µM) amounted to 0.584; in the experiment with Kobe2602 + Phenformin (first compound 6.325 µM), 0.526; with Kobe2602 + Phenformin (first compound 20 µM), 0.597; in experiment [1] (first compound 0.02 µM) it was 1.06; in experiment [1] (first compound 0.06325 µM), 1.78; in experiment [1] (first compound 0.2 µM), 1.39. For the same cell line, the relative viability in experiment [1] (first compound 0.6325 µM) came to 0.905; in experiment [1] (first compound 2 µM), 1.1; with Kobe2602 + OSI-027 (first compound 0.2 µM), 0.329; in the experiment with Kobe2602 + OSI-027 (first compound 0.6325 µM) it was 0.365; with Kobe2602 + OSI-027 (first compound 2 µM), 0.359; with Kobe2602 + OSI-027 (first compound 6.325 µM), 0.327. The relative viability with Kobe2602 + OSI-027 (first compound 20 µM) was found to be 0.371.
SW 1573: the relative viability in the experiment with Zosuquidar + Bortezomib (first compound 0.01 µM) came to 0.976; with Zosuquidar + Bortezomib (first compound 0.03162 µM), 0.987; with Zosuquidar + Bortezomib (first compound 0.1 µM) it was 1.04; with Zosuquidar + Bortezomib (first compound 0.3162 µM), 1.18; in the experiment with Zosuquidar + Bortezomib (first compound 1 µM) it was 1.14; in the experiment with Kobe2602 + Phenformin (first compound 0.2 µM), 0.346. In addition, the relative viability with Kobe2602 + Phenformin (first compound 0.6325 µM) is 0.47; with Kobe2602 + Phenformin (first compound 2 µM) it was 0.378; with Kobe2602 + Phenformin (first compound 6.325 µM), 0.346; with Kobe2602 + Phenformin (first compound 20 µM), 0.168; in experiment [1] (first compound 0.02 µM), 1.23; in experiment [1] (first compound 0.06325 µM), 1.05. Besides, the relative viability in experiment [1] (first compound 0.2 µM) worked out at 1.09; in experiment [1] (first compound 0.6325 µM), 0.951; in experiment [1] (first compound 2 µM) it was 0.875; with Kobe2602 + OSI-027 (first compound 0.2 µM) it was 0.722; with Kobe2602 + OSI-027 (first compound 0.6325 µM), 0.535; in the experiment with Kobe2602 + OSI-027 (first compound 2 µM) it was 0.531. Moreover, the relative viability is 0.62 with Kobe2602 + OSI-027 (first compound 6.325 µM) and 0.303 with Kobe2602 + OSI-027 (first compound 20 µM).
